# According to US20030086900A1, “Method of treatment using ligand-immunogen conjugates” (priority 2001, published 2003):
# System: M109 cells
# Assay: Survival of mice with M109 lung tumor implants, folate-MDP therapy
# Assay type: in vivo
# Conditions: female Balb/c mice, M109 cells i.p.; folate-MDP 15 nmoles/kg, IL-2 5,000 IU/dose, IFN-α 25,000 U/dose; injections on days 7, 8, 9, 11, 14
# Protocol: Female Balb/c mice were injected on day 0 with 5×10^5 M109 cells, a syngeneic lung cancer cell line that expresses high levels of the folate receptor. In an effort to reduce the time required to obtain long-term survival data, the tumor cells were implanted intraperitoneally close to the liver. Cancer loci were then allowed to attach and grow. The animals were then injected with PBS (control) or were co-injected with folate-muramyl dipeptide (MDP) (15 nmoles/kg), IL-2 (5,000 IU/dose), and IFN-α (25,000 U/dose) on days 7, 8, 9, 11, and 14 after tumor cell implantation. Folate was conjugated to MDP via a gamma carboxyl-linked ethylene diamine bridge. Additional animals were injected with 80 nmoles/kg MDP, 15 nmoles/kg folate-MDP, or 80 nmoles/kg MDP and IL-2 and IFN-α at the concentrations specified above. The efficacy of this immunotherapy was evaluated by monitoring survival as a function of time of folate-MDP treated mice compared to control animals.
substance,measurement,value
folate-muramyl dipeptide [folate-MDP],effect on long-term survival of tumor-bearing mice,negligible effect
